The conditions of data set [1]: previous studies; cited from earlier work.
The nature of data set [2]: Net charge of peptide at neutral pH. Type of data set: physicochemical. The note with it: owing to 2 Arginine residues.
In data set [3] the test system is EAE. Nature of the data set: EAE murine model, intravenous versus subcutaneous administration of remote loaded nanoparticles (Example VIII). The following applies: 100 ug subcutaneous by the tail base; after 60 days. It counts as in vivo, C57BL/6J mice.
Data set [4] relates to EAE. The data set can be described thus: EAE murine model, effects of remote loaded nanoparticles on Treg response, EAE scores (Example IX). Type of data set: in vivo, C57BL/6J mice. The note with it: 10 ug subcutaneous by the tail base. As for the experimental part: EAE was induced in a murine model as described in Example VIII. There were 3 treatment groups and one group that only received phosphate-buffered saline (PBS). For the treatment groups, 10 ug of self-antigen in 1 mL PBS was aliquoted from the MOG 38-50 loaded PLGA nanoparticles batch based on loading % determined by UPLC. The first treatment group received remote loaded nanoparticles injected subcutaneously by the tail base. The second treatment group received remote loaded nanoparticles injected intravenously in the tail. The third treatment group received 10 ug of free MOG 38-50 peptide injected subcutaneously by the tail base. EAE was assessed daily using the 0 to 5 clinical score scale described in Example VII.

Here are results for three molecules from patent publication US20260083830A1, “BIODEGRADABLE POLYMERIC PARTICLES FOR DELIVERY OF POSITIVELY CHARGED THERAPEUTIC AGENTS” (REGENTS OF THE UNIVERSITY OF MICHIGAN, priority 2022, published 2026).

In the case of `C[C@@H](O)[C@@H]1NC(=O)[C@H](CCCCN)NC(=O)[C@@H](Cc2c[nH]c3ccccc23)NC(=O)[C@H](Cc2ccccc2)NC(=O)[C@@H](NC(=O)[C@H](N)Cc2ccccc2)CSSC[C@@H](C(=O)N[C@H](CO)[C@@H](C)O)NC1=O` [octreotide], the “charge at neutral pH” value in data set [1] is listed as “~+1.7”.

As for “MOG 38-50 (GWYRSPFSRVVHL) [free MOG 38-50 peptide]”, in data set [2], the charge entry was “> +1”. This molecule came in with an EAE clinical score in the data set with EAE [3] of 3.5. Further, the EAE score in the data set on EAE [4] (after day 8) is given as about 3.0; with EAE [4] (day 8), about 2.5.

With `CCNC(=O)[C@@H]1CCCN1C(=O)[C@H](CCCNC(=N)N)NC(=O)[C@H](CC(C)C)NC(=O)[C@@H](CC(C)C)NC(=O)[C@H](Cc1ccc(O)cc1)NC(=O)[C@H](CO)NC(=O)[C@H](Cc1c[nH]c2ccccc12)NC(=O)[C@H](Cc1c[nH]cn1)NC(=O)[C@@H]1CCC(=O)N1` [leuprolide], the “charge at neutral pH” value in data set [1] is “~+1”.
